Reference: patent US20050059626A1, “Methods of preventing and treating viral infections using immunomodulatory polynucleotide sequences” (priority 2000, published 2005)

Columns and labels:
HSV-1 [1] = test: Viral titer from Vero cells pre-treated with oligonucleotide, HSV-1; assay type: cell-based, African Green monkey (Vero cells); settings: for Viral titer, percent of control titer: cells infected with HSV-1
Protocol: Vero cells, a cell line derived from African Green monkey kidney, were pre-treated with varying concentrations of ISS or non-ISS oligonucleotides for varying times prior to the addition of HSV-1 or HSV-2. Oligonucleotides were used at 1 μg/ml or 10 μg/ml and the cells were incubated with the oligonucleotides for 30 seconds, 10 minutes or 24 hours. Viral titers were calculated as a percent of control titer generated by cells not treated with the oligonucleotides. The data are expressed as percent of control titer.

HSV-1 [2] = test: Viral titer after pre-treating HSV-1 virus with oligonucleotide, Vero cells; assay type: cell-based, African Green monkey (Vero cells)
Protocol: HSV-1 or HSV-2 virus was pre-treated with varying concentrations of ISS or non-ISS oligonucleotides for 10 minutes prior to adding the mixture to plated Vero cells. Oligonucleotides were used at 1 μg/ml or 10 μg/ml. Viral titers were calculated as a percent of control titer generated by cells not treated with the oligonucleotides. The data are expressed as percent of control titer.

HSV-2 strain 186 = test: Vaginal HSV-2 lethal challenge in mice; assay type: in vivo, Swiss Webster mice
From the text: Outbred Swiss Webster mice, vaginally infected with HSV-2 strain 186, were used as a model of HSV infection. In these animals, the first indication of viral infection is hair loss and erythema (HLE) near the vagina occurring, on average, 5 days after inoculation. The next stage of infection is indicated by chronic wetness (CW) due to loss of bladder control, on average, 6 days after inoculation. A portion (about 50% of infected mice) of the animals develop hind limb paralysis (HLP) at approximately the same time point. Death, which is often preceded by evidence of CNS disease, occurs an average of 7-9 days after viral inoculation.
Mice were prepared for infection by an initial two-dose treatment with depopriven to synchronize cycles and to thin the vaginal epithelium. Vaginal mucous was removed by swabbing with calcium alginate, then a lethal challenge dose (determined by titration) of HSV-2 strain 186 was delivered by positive-displacement pipettor. Inoculated mice were randomly grouped into one of 4 treatment groups (n=15/group). Animals in group 1 received no treatment and served as a control for the study. Animals in the second and third groups were treated topically with 100 μg of an ISS-containing phosphorothioate oligonucleotide (5′-[…]-3′) (SEQ ID NO:1) suspended in phosphate-buffered saline (PBS). The groups were treated 2 or 6 hours after inoculation. As a vehicle control, group four was treated with PBS alone.
In another experiment, inoculated mice were randomly grouped into 8 treatment groups (n=16/group). Animals in the groups received treatments as outlined in Table 11 below. The groups were treated 2 hours after virus inoculation.

[3] = 100 μg topical 2 h post-inoculation (PI)
[4] = 100 μg topical 6 h post-inoculation (PI)

Substance: 5′-TGACTGTGAACGTTCGAGATGA-3′ [SEQ ID NO: 1]
- Effect on viral titers from infected cells (HSV-1 [1]; cells incubated with ISS prior to HSV infection in vitro (HSV-1 and HSV-2, Table 12)): no effect on the viral titers
- Viral titer, percent of control titer (HSV-1 [1]; cells pre-treated 1 μg/ml, 30 sec): 98% of control titer
- Viral titer, percent of control titer (HSV-1 [1]; cells pre-treated 1 μg/ml, 10 min): 96% of control titer
- Viral titer, percent of control titer (HSV-1 [1]; cells pre-treated 1 μg/ml, 24 hr): 89% of control titer
- Viral titer, percent of control titer (HSV-1 [1]; cells pre-treated 10 μg/ml, 30 sec): 100% of control titer
- Viral titer, percent of control titer (HSV-1 [1]; cells pre-treated 10 μg/ml, 10 min): 102% of control titer
- Viral titer, percent of control titer (HSV-1 [1]; cells pre-treated 10 μg/ml, 24 hr): 82% of control titer
- Effect on viral titers from infected cells (HSV-1 [2]; HSV virus incubated with ISS prior to infecting cells in vitro (HSV-1 and HSV-2, Table 13)): no effect on the viral titers
- Viral titer, percent of control titer (HSV-1 [2]; HSV-1 virus pre-treated 10 minutes with 1 μg/ml): 101% of control titer
- Viral titer, percent of control titer (HSV-1 [2]; HSV-1 virus pre-treated 10 minutes with 10 μg/ml): 109% of control titer
- Overall effect on HSV2 disease (incidence, survival, time to symptoms and death) (HSV-2 strain 186; 100 μg topical 2 or 6 hours after inoculation): decreased incidence (i.e., individuals showing symptoms of HSV2 infection), improved survival and delays in both appearance of symptoms and time to death
- Incidence (%) (HSV-2 strain 186; [3]): 60%
- Incidence (animals with symptoms/total) (HSV-2 strain 186; [3]): 9/15
- Survival (%) (HSV-2 strain 186; [3]): 40%
- Survival (survivors/total) (HSV-2 strain 186; [3]): 6/15
- Time to Death (HSV-2 strain 186; [3]): 12 days
- Time to Symptoms (HSV-2 strain 186; [3]): 6.6 days
- Incidence (%) (HSV-2 strain 186; [4]): 80%
- Survival (%) (HSV-2 strain 186; [4]): 27%
- Survival (survivors/total) (HSV-2 strain 186; [4]): 4/15
- Time to Death (HSV-2 strain 186; [4]): 10.6 days
- Time to Symptoms (HSV-2 strain 186; [4]): 5.75 days
- Change in average time to death (HSV-2 strain 186; animals that died, treated two hours after infection): increased by an average of over two days
